Data reported in PubChem BioAssay AID304 (DTP/NCI, 2004).
Values joined by “and” are separate entries in the source; they are usually repeats but may differ in a detail not shown here. Identical values can stand only once. Toxic doses and inconclusive results are not listed.

Tested on: Lymphosarcoma Mecca ip in C3AKF1 mice, survival T/C%
Assay: NCI In Vivo Anticancer Drug Screen. Data for tumor model Lymphosarcoma Mecca (intraperitoneal) in C3AKF1 (CHKRF1) mice
Conditions: endpoint: survival time, mean or median, higher = longer survival
Experimental: The antitumor activity of compounds was measured in mice bearing transplantable tumors. Survival or tumor size were measured and the results are expressed as the measurement made in the treated group (T) divided by the measurement made in the vehicle treated control group (C). The tumor model used in this assay is Lymphosarcoma Mecca (intraperitoneal) in C3AKF1 (CHKRF1) mice

[1] = dose: 5.0 mg/kg/injection, schedule: Q01DX010 (ip), vehicle: saline
[2] = dose: 10.0 mg/kg/injection, schedule: Q01DX010 (ip), vehicle: saline
[3] = dose: 125.0 mg/kg/injection, schedule: Q01DX010 (ip), vehicle: saline
[4] = dose: 150.0 mg/kg/injection, schedule: Q01DX010 (ip), vehicle: saline
[5] = dose: 12.5 mg/kg/injection, schedule: Q01DX010 (ip), vehicle: saline
[6] = dose: 25.0 mg/kg/injection, schedule: Q01DX010 (ip), vehicle: saline
[7] = dose: 50.0 mg/kg/injection, schedule: Q01DX010 (ip), vehicle: saline

In the case of `O[C@H](CN1CC1)[C@@H](O)CN1CC1`, the T/C (dose: 62.5 micrograms/kg/injection, schedule: Q01DX010 (ip), vehicle: saline) is reported as 175 % of control, the T/C (dose: 125.0 micrograms/kg/injection, schedule: Q01DX010 (ip), vehicle: saline) is reported as 210 % of control and 235 % of control and the T/C (dose: 250.0 micrograms/kg/injection, schedule: Q01DX010 (ip), vehicle: saline) is reported as 235 % of control and 300 % of control. For the same compound, the T/C (dose: 500.0 micrograms/kg/injection, schedule: Q01DX010 (ip), vehicle: saline) was 105 % of control.

In the case of `N#[N+]c1cnc([O-])[nH]c1=O`, the T/C [1] is reported as 157 % of control.

With `S=P(N1CCOCC1)(N1CC1)N1CC1` the T/C (dose: 2.5 mg/kg/injection, schedule: Q01DX010 (ip), vehicle: saline) was 88 % of control, the T/C [1] was 88 % of control and the T/C [2] was 88 % of control.

`CCOC(N)=O` was tested, and the T/C [3] was 90 % of control and 104 % of control, the T/C (dose: 250.0 mg/kg/injection, schedule: Q01DX010 (ip), vehicle: saline) was 86 % of control and 95 % of control and the T/C (dose: 500.0 mg/kg/injection, schedule: Q01DX010 (ip), vehicle: saline) was 95 % of control and 122 % of control.

With `C[C@H](N)C(=O)N[C@@H]1[C@H]2C(=C(O)C[C@@H](O)[C@@H]2O)C(=O)O[C@@H]1C` the T/C [4] was 155 % of control, the T/C (dose: 300.0 mg/kg/injection, schedule: Q01DX010 (ip), vehicle: saline) was 92 % of control and the T/C (dose: 600.0 mg/kg/injection, schedule: Q01DX010 (ip), vehicle: saline) was 100 % of control and 120 % of control. The T/C (dose: 1200.0 mg/kg/injection, schedule: Q01DX010 (ip), vehicle: saline) was 155 % of control.

With `O=C(Nc1ccc(C2=NCCN2)cc1)c1cccc(C(=O)Nc2ccc(C3=NCCN3)cc2)c1` the T/C (dose: 8.0 mg/kg/injection, schedule: Q01DX010 (ip), vehicle: saline) was 113 % of control, the T/C (dose: 16.0 mg/kg/injection, schedule: Q01DX010 (ip), vehicle: saline) was 110 % of control and 205 % of control and the T/C (dose: 64.0 mg/kg/injection, schedule: Q01DX010 (ip), vehicle: saline) was 175 % of control.

With `CS(=O)(=O)OCCCCOS(C)(=O)=O` the T/C (dose: 6.25 mg/kg/injection, schedule: Q01DX010 (ip), vehicle: saline) was 86 % of control and 100 % of control, the T/C [5] was 100 % of control and the T/C [6] was 90 % of control. The T/C [7] was 95 % of control.

In the case of `CC(=O)NC1=C(N2CC2)C(=O)C(NC(C)=O)=C(N2CC2)C1=O`, the T/C (dose: 0.13 mg/kg/injection, schedule: Q01DX010 (ip), vehicle: saline) is reported as 109 % of control, the T/C (dose: 0.5 mg/kg/injection, schedule: Q01DX010 (ip), vehicle: saline) is reported as 177 % of control and 188 % of control and the T/C (dose: 1.0 mg/kg/injection, schedule: Q01DX010 (ip), vehicle: saline) is reported as 109 % of control and 111 % of control.

In the case of `CCn1cnc2c(=S)nc[nH]c21`, the T/C (dose: 15.6 mg/kg/injection, schedule: Q01DX010 (ip), vehicle: saline) is reported as 100 % of control, the T/C (dose: 31.3 mg/kg/injection, schedule: Q01DX010 (ip), vehicle: saline) is reported as 100 % of control and the T/C (dose: 62.5 mg/kg/injection, schedule: Q01DX010 (ip), vehicle: saline) is reported as 90 % of control. For the same compound, the T/C [3] was 100 % of control.

For `CCN(CC)CCCC(C)Nc1c2ccc(Cl)cc2nc2ccc(OC)cc12` (stereo not drawn), the T/C [5] was 100 % of control, the T/C [6] was 100 % of control and 111 % of control and the T/C [7] was 90 % of control and 105 % of control. For the same compound, the T/C (dose: 100.0 mg/kg/injection, schedule: Q01DX010 (ip), vehicle: saline) was 95 % of control and 111 % of control.

`CN(C)c1nc(N(C)C)nc(N(C)C)n1` was tested, and the T/C (dose: 18.8 mg/kg/injection, schedule: Q01DX010 (ip), vehicle: saline) was 105 % of control, the T/C (dose: 37.5 mg/kg/injection, schedule: Q01DX010 (ip), vehicle: saline) was 100 % of control and the T/C (dose: 75.0 mg/kg/injection, schedule: Q01DX010 (ip), vehicle: saline) was 100 % of control and 111 % of control. For the same compound, the T/C [4] was 105 % of control and 111 % of control.

With `Cn1c(N)nc2nc[nH]c2c1=S` the T/C [2] was 100 % of control and 105 % of control, the T/C (dose: 20.0 mg/kg/injection, schedule: Q01DX010 (ip), vehicle: saline) was 100 % of control and 105 % of control and the T/C (dose: 40.0 mg/kg/injection, schedule: Q01DX010 (ip), vehicle: saline) was 110 % of control. The T/C (dose: 80.0 mg/kg/injection, schedule: Q01DX010 (ip), vehicle: saline) was 100 % of control.

In the case of `CC/C(=C(/CC)c1ccc(O)cc1)c1ccc(O)cc1`, the T/C (dose: 12.5 mg/kg/injection, schedule: Q01DX010 (sc), vehicle: steriod suspending solution) is reported as 96 % of control and 110 % of control, the T/C (dose: 25.0 mg/kg/injection, schedule: Q01DX010 (sc), vehicle: steriod suspending solution) is reported as 120 % of control and the T/C (dose: 50.0 mg/kg/injection, schedule: Q01DX010 (sc), vehicle: steriod suspending solution) is reported as 88 % of control and 105 % of control. For the same compound, the T/C (dose: 100.0 mg/kg/injection, schedule: Q01DX010 (sc), vehicle: steriod suspending solution) was 92 % of control and 100 % of control.

In the case of `O=[n+]1c2c(n([O-])c3ccccc31)-c1cccc3cccc-2c13`, the T/C (dose: 3.13 mg/kg/injection, schedule: Q01DX010 (ip), vehicle: saline) is reported as 100 % of control, the T/C [5] is reported as 88 % of control and the T/C [6] is reported as 90 % of control.
